Experiments:
Acetylcholinesterase [1] = molecular target: T1, Acetylcholinesterase (Homo sapiens, UniProt P22303)
Description: Inhibition of AChE (unknown origin) using acetylcholine iodate as substrate preincubated for 10 mins followed by substrate addition by Ellman's method

Acetylcholinesterase [2] = molecular target: T1, Acetylcholinesterase; remark: listed apart in the source
Description: Inhibition of AChE (unknown origin) using acetylcholine iodate as substrate preincubated for 10 mins followed by substrate addition by Lineweaver-Burk plot analysis

Acetylcholinesterase [3] = molecular target: Acetylcholinesterase (Electrophorus electricus, UniProt O42275)
Chain of Acetylcholinesterase (Electrophorus electricus, UniProt O42275) (O42275 whole entry): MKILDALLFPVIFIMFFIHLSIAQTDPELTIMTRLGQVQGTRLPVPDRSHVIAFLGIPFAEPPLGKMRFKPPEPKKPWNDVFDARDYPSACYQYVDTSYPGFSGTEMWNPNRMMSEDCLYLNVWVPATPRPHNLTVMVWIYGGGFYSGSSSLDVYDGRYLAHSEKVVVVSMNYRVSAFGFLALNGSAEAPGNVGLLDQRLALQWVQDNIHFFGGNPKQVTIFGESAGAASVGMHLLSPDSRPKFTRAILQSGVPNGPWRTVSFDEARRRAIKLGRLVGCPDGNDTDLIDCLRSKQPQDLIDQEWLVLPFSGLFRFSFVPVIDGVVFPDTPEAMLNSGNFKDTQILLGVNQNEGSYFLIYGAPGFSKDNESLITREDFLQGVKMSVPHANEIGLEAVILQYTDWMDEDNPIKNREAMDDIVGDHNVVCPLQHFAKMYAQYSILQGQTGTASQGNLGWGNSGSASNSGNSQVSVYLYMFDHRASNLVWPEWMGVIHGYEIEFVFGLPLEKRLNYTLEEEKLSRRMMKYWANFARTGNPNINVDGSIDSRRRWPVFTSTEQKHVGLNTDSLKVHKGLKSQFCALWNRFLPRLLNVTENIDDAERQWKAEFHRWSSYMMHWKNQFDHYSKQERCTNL
Description: Inhibition of electric eel AChE using acetylthiocholine iodide as substrate preincubated for 10 mins followed by substrate addition by Lineweaver-Burk plot analysis

T1 sequence (P22303 whole entry): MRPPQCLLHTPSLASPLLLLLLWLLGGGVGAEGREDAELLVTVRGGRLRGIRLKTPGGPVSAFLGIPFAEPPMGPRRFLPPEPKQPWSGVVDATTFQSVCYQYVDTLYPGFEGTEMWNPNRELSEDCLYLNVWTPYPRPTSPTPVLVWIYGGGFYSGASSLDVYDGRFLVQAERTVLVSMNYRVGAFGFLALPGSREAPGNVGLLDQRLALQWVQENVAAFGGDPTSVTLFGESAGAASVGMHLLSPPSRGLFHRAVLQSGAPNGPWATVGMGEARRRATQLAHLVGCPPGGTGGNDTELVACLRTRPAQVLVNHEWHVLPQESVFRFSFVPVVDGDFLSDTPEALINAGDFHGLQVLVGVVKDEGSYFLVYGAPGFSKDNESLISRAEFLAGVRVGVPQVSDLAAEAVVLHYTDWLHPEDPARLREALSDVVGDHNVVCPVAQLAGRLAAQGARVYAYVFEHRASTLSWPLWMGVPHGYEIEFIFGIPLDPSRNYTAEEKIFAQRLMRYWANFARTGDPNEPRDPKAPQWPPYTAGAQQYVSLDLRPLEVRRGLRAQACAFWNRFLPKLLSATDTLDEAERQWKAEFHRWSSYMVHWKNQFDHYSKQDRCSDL

Compound	IC50 (Acetylcholinesterase [1])	Ki (Acetylcholinesterase [2])	Ki (Acetylcholinesterase [3])
CN(C)S(=O)(=O)N[C@H]1CCc2cc(O)ccc2C1	27.9 nM	1.22 nM	–
COc1ccc2c(c1)CC(NS(=O)(=O)N(C)C)CC2 (stereo not drawn)	15.8 nM	0.83 nM	–
COc1ccc2c(c1)C[C@@H](NC(=O)N(C)C)CC2	22.4 nM	1.06 nM	–
Oc1ccc(O)cc1 [HYDROQUINONE]	–	–	1.22 nM
COc1ccc2c(c1)CCC(NC(=O)N(C)C)C2 (stereo not drawn)	16.4 nM	0.67 nM	–
CN(C)C(=O)N[C@H]1CCc2c(O)cccc2C1	132 nM	1.59 nM	–
COc1ccc2c(c1)CCC(NS(=O)(=O)N(C)C)C2 (stereo not drawn)	17 nM	1.05 nM	–
CN(C)S(=O)(=O)NC1CCc2ccc(O)cc2C1 (stereo not drawn)	37 nM	0.72 nM	–
COc1cccc2c1CC[C@H](NC(=O)N(C)C)C2	19.9 nM	0.98 nM	–
CN(C)C(=O)NC1CCc2cc(O)ccc2C1 (stereo not drawn)	7.16 nM	1.33 nM	–
CN(C)C(=O)N[C@H]1CCc2ccc(O)cc2C1	103 nM	1.74 nM	–
CN(C)S(=O)(=O)NC1CCc2c(O)cccc2C1 (stereo not drawn)	30.9 nM	1.34 nM	–
